The conditions of data set [1]: aqueous composition containing MBK, pH 7.0 and pH 9.6, 5 hours. On the procedure: Cells in the digestive track, such as CACO-2 cells are typically used to model absorption in the small intestine. CACO-2 cells, developed by the Sloan-Kettering Institute from human epithelial colorectal adenocarcinoma cells, are widely used to predict drug absorption. […] permeability assay (PAMPA) uses an artificial cell membrane to model drug permeability. In either test, the drug is dissolved in an aqueous solution mimicking the target gastric fluid. The fluid is contacted with the membrane, and the passage of the drug through the membrane over a period of time is used to assess permeability.
PAMPA measures how quickly the drug can exit a water-solvated environment and pass through a cell membrane. Since most drugs are hydrophobic, it is expected that there will be significant absorption by the cells lining the digestive tract.

The conditions of data set [2]: rat; for Halflife / Tmax: mean.
Data set [3] can be described thus: in vivo. The note with it: rat.
The conditions of data set [4]: dogs, rectal, aqueous solution; cited from earlier work.
Setting [5] is: Group B, intravenous, 1.37 mg/kg.

The text below walks through data of patent US20140275259A1, “Direct Lipid to Membrane Drug Delivery” (APPLIED BIORESEARCH, INC., priority 2013, published 2014).

Usually Tmax stands for the time at which the peak concentration occurs. What is called bioavailability is the share of a dose that reaches the circulation, judged against a reference dose that is usually intravenous. The low end stands for poor availability, the high end for good availability. In general, AUC refers to the area under the concentration-time curve, a measure of exposure. A low value points to less exposure. One may read the AUC(0-inf) as total exposure, with the tail of the curve extrapolated. The term Cmax denotes the highest concentration seen after dosing.

Each structure is given as a SMILES string. Where two headings read alike, the source gives them in different places.

As for `O=C([O-])CN(CCN(CC(=O)[O-])CC(=O)[O-])CC(=O)[O-].[Ca+2].[Na+].[Na+]` [CaNa2EDTA, calcium disodium ethylenediaminetetraacetate], the “passage of drug through the artificial cell membrane (PAMPA)” value in data set [1] is listed as “completely negative”. In addition, in data set [2] (setting [5]), the Halflife turned out to be 1.50 h and the Tmax was 4.98 min. The Tmax in data set [2] (Group C, rectal suppository, 213.5 mg/kg) came to 25 min. The Halflife in data set [2] (Group C, rectal suppository, 213.5 mg/kg, terminal elimination phase not observed, calculation interpolated) is 8.20^1 Hour. Moreover, in data set [2] (suppository with MBK as the excipient), the “drug absorbed within eight hours” value is “over 36.3%”. This compound had a bioavailability at 8 hours in data set [3] of 36.3%. For the same compound, in data set [3] (213.5 mg/kg), the AUC is 106000 ng·h/mL, the total exposure AUC(0-inf) turned out to be 307000 ng·h/mL and the concentration peaked (Cmax) at 30600 ng/mL. Also, in data set [3] (iv, 1.37 mg/kg), the AUC stood at 1860 ng·h/mL, the AUC(0-inf) amounted to 1910 ng·h/mL and the concentration peaked (Cmax) at 2070 ng/mL.
Regarding `O=C(O)CN(CCN(CC(=O)O)CC(=O)O)CC(=O)O` [EDTA], in data set [4], the absorption was roughly 13%.
